These results are taken from the Deep4Chem optical property database.

Molecules are shown by their SMILES.

The nature of the data set: photoluminescence quantum yield (fraction); solvent given as SMILES.
The mark [1] stands for this setting: in O=P(c1ccccc1)(c1ccccc1)c1ccc2oc3ccc(P(=O)(c4ccccc4)c4ccccc4)cc3c2c1.

Take `Nc1ccc(C#Cc2ccc3ccc4ccc(C#Cc5ccc(NS(=O)(=O)c6ccc([N+](=O)[O-])cc6[N+](=O)[O-])cc5)c5ccc2c3c45)cc1`: the photoluminescence quantum yield (in CO) was found to be 0.016. In the case of `COc1ccc(C#Cc2c3cc4cc(C)sc4cc3c(C#Cc3ccc(OC)cc3)c3cc4cc(C)sc4cc23)cc1`, the photoluminescence quantum yield (in ClCCl) was found to be 0.92. Regarding `COc1ccc(-c2cc3c(ccc(=O)n3C)s2)cc1`, the photoluminescence quantum yield runs as follows: (in CC#N) 0.42; (in ClCCl) 0.83. On to `ClP1(Cl)=NP(Cl)(Cl)=NP(Cl)(Oc2ccc3ccc4cccc5ccc2c3c45)=N1` (stereo not given), for which the photoluminescence quantum yield (in ClCCl) turned out to be 0.55.

With `CC(C)(C)c1ccc(-c2sc3c(-c4ccc(C(C)(C)C)cc4)c4n(c3c2-c2ccc(C(C)(C)C)cc2)[B-](F)(F)[N+]2=Cc3c(-c5ccc(C(C)(C)C)cc5)c5sc(-c6ccc(C(C)(C)C)cc6)c(-c6ccc(C(C)(C)C)cc6)c5n3[B-](F)(F)[N+]2=C4)cc1`, the photoluminescence quantum yield runs as follows: (in CC#N) 0.49; (in CCCCCC) 0.64; (in CN(C)C=O) 0.45; (in Cc1ccccc1) 0.59; (in ClCCl) 0.6. Where the note is “in CC#N”, `Oc1ccc2ccccc2c1/C=N/c1cc2ccccc2cc1/N=C/c1c(O)ccc2ccccc12` yielded a photoluminescence quantum yield of 0.042.

On to `C#CCn1c2ccccc2c2cc(/C=C/C3=[N+]4C(=C(c5ccc(I)cc5)c5c(C)c(Cl)c(/C=C/c6ccc7c(c6)c6ccccc6n7CC#C)n5[B-]4(F)F)C(C)=C3Cl)ccc21`, for which the photoluminescence quantum yield runs as follows: (in CC#N) 0.5; (in CS(C)=O) 0.32; (in ClC(Cl)Cl) 0.55. Consider `CCN(CC)c1ccc2cc(-c3nc4cc(C(=O)Nc5ccccc5[N+](=O)[O-])ccc4o3)c(=O)oc2c1`, for which the photoluminescence quantum yield (in ClCCl) was determined as 0.38.

As for `CC1(C)c2ccccc2N(c2ccc(-c3ncccn3)cc2)c2ccccc21`, under setting [1], the photoluminescence quantum yield amounted to 0.83. Turning to `c1ccc2c(c1)Cc1ccccc1N2c1c2ccccc2c(N2c3ccccc3Cc3ccccc32)c2ccccc12`, the photoluminescence quantum yield (in Cc1ccccc1) worked out at 0.06. Under “in ClCCl”, `CC(C)(C)c1cc(-n2c(-c3ccc(C(=C(c4ccccc4)c4ccccc4)c4ccccc4)cc3)cc3c2cc(-c2ccc(C(=C(c4ccccc4)c4ccccc4)c4ccccc4)cc2)n3-c2cc(C(C)(C)C)cc(C(C)(C)C)c2)cc(C(C)(C)C)c1` came in with a photoluminescence quantum yield of 0.0085. In the case of `COc1ccc(/C=C2\OC(=O)c3ccccc32)cc1`, the photoluminescence quantum yield runs as follows: (in CC(C)=O) 0.01; (in CC(C)CO) 0.07; (in CC(C)O) 0.1; (in CCCO) 0.13; (in CCO) 0.14; (in CCOC(C)=O) 0.008. Further, the photoluminescence quantum yield came out at 0.001 (in CCOCC) and 0.14 (in CO). For `CCCCCOc1cc2oc(=O)c3c4ccc(N(c5ccccc5)c5ccccc5)cc4c4ccc5cccc6c(c1)c2c3c4c56`, the photoluminescence quantum yield (in C1CCOC1) amounted to 0.752. `CC(C)C[Si](C#Cc1c2c(=O)c3ccccc3c2c(C#C[Si](CC(C)C)(CC(C)C)CC(C)C)c2c(=O)c3ccccc3c12)(CC(C)C)CC(C)C`: the photoluminescence quantum yield (in ClC(Cl)Cl) is 0.1. Regarding `C[Si](C)(C)c1ccc(-c2ccc(-c3ccc(-c4ccc(-c5ccc([Si](C)(C)C)s5)cc4)c4nsnc34)cc2)s1`, for the setting “in C1CCOC1”, the photoluminescence quantum yield was 0.73. `C(=C\c1c2ccccc2cc2ccccc12)/c1cccc2ccccc12`: the photoluminescence quantum yield was 0.43 (in CC1CCCCC1) and 0.35 (in CC#N). With `Cc1cc(C)n2c1C=C1c3ccccc3C(c3cccn3C)=[N+]1[B-]2(F)F`, the photoluminescence quantum yield was determined as 0.96 (in C1CCOC1); 0.97 (in CC#N); 0.96 (in CCCCCC); 0.98 (in CO); 0.94 (in Cc1ccccc1); 0.99 (in ClCCl).

For `CC1=CC(C)=[N+]2C1=C(c1ccc(I)cc1)c1c(C)cc(C)n1[B-]2(OCc1ccccc1)OCc1ccccc1`, under “in ClC(Cl)Cl”, the photoluminescence quantum yield was determined as 0.65.

For `CN(C)c1ccc(C2=Cc3ccc4ccccc4[n+]3[B-](F)(F)O2)cc1`, the photoluminescence quantum yield by setting is: (in C1CCOC1) 0.517; (in C1COCCO1) 0.735; (in CC1CCCCC1) 0.862; (in CC#N) 0.296; (in CCOC(C)=O) 0.614; (in CCOCC) 0.747. This molecule also came in with a photoluminescence quantum yield (in CN(C)C=O) of 0.187, a photoluminescence quantum yield (in CO) of 0.308, a photoluminescence quantum yield (in COC(C)=O) of 0.374 and a photoluminescence quantum yield (in ClC(Cl)Cl) of 0.86. In turn, `c1ccc(-c2nc(-c3ccccc3)nc(-c3ccc(-n4c5ccccc5c5ccc6c(c7ccccc7n6-c6ccccc6)c54)cc3)n2)cc1` gave a photoluminescence quantum yield under setting [1] of 0.9. Regarding `C=CCNc1ccc2c(ccc3oc4cc(=[N+](C)C)ccc-4nc32)c1`, the photoluminescence quantum yield was 0.06 (in CC#N), 0.05 (in CCO), 0.4 (in ClCCl) and 0.009 (in O). `F[B-]1(F)OC(C#Cc2ccccc2)=C2CCc3ccccc3C2=[O+]1`: for the setting “in ClCCl”, the photoluminescence quantum yield worked out at 0.83. Same read-out and setting: the value for `CC(C)(C)c1ccc(-n2c(-c3ccc(-c4ccc(N(c5ccccc5)c5ccccc5)cc4)cc3)nc3c4ccccc4c4ccccc4c32)cc1` was 1. On to `CC1=CC(C)=[N+]2C1=C(c1ccc(I)cc1)c1c(C)cc(C)n1[B-]21OCCO1`, for which the photoluminescence quantum yield (in ClC(Cl)Cl) turned out to be 0.14. For `Cc1ccc(-c2ccc(/C=C/c3ccc(F)cc3)cn2)nc1`, where the note is “in CC#N”, the photoluminescence quantum yield is 0.69. On to `Cc1c(C(=O)c2ccccc2)c2ccc3cccc4c5cccc6ccc1c(c65)c2c34`, for which the photoluminescence quantum yield (in ClCCl) stood at 0.02. In turn, `Cc1cc(/N=C/c2cc(S(=O)(=O)[O][Na])ccc2O)c(/N=C/c2cc(S(=O)(=O)[O][Na])ccc2O)cc1C` gave a photoluminescence quantum yield (in O) of 0.56. In turn, `CCOC(=O)c1sc(-c2ccc(-c3cc(C4CC4)c(C(=O)OCC)s3)s2)cc1C1CC1` came in with a photoluminescence quantum yield (in ClCCl) of 0.21. Under “in C1CCOC1”, `Cc1ccc(C2=C3C=CC([Te]c4ccccc4)=[N+]3[B-](F)(F)n3c([Te]c4ccccc4)ccc32)cc1` registered a photoluminescence quantum yield of 0.01. `c1ccc2[nH]ccc2c1` showed a photoluminescence quantum yield (in O) of 0.93. With `c1cc2ccc1-c1ccc(cc1)-c1sc(c3c1OCCO3)-c1ccc(cc1)-c1ccc(cc1)-c1sc(c3c1OCCO3)-c1ccc(cc1)-c1ccc(cc1)-c1sc-2c2c1OCCO2`, the photoluminescence quantum yield (in C1CCOC1) turned out to be 0.34.

`C[N+]1=C(/C=C/C=C2/N(CCC[N+](C)(C)C)c3ccccc3C2(C)C)C(C)(C)c2ccccc21`: under “in CS(C)=O”, the photoluminescence quantum yield worked out at 0.08. For the molecule `CC(C)(C)c1ccc(-c2cc(-c3ccc(-c4cc(-c5ccc(C(C)(C)C)cc5)c(C(=O)NCc5ccccc5)s4)s3)sc2C(=O)NCc2ccccc2)cc1`, the photoluminescence quantum yield (in ClCCl) came to 0.33. For the molecule `CCNc1cc2c(cc1C)C(c1ccccc1C(=O)O)=C1CCCC(/C=C/C3=[N+](C)c4ccccc4C3(C)C)=C1O2`, the photoluminescence quantum yield (in CC#N) was 0.32, the photoluminescence quantum yield (in CCO) is 0.56, the photoluminescence quantum yield (in CO) was 0.55 and the photoluminescence quantum yield (in ClC(Cl)Cl) was found to be 0.54. On to `CC[n+]1nc2ccc(N(C)C)cc2c2cc(C)ccc21`, for which, for the setting “in O”, the photoluminescence quantum yield was determined as 0.003.

As to `N#C/C(=C\c1ccc(Cl)cc1)c1nc(-c2ccccc2)c(-c2ccccc2)s1`, where the note is “in CC#N”, the photoluminescence quantum yield was determined as 0.004. In turn, `CCCCN(CCCC)c1ccc(C#Cc2cc(C#Cc3ccc(N(CCCC)CCCC)cc3)c(C#Cc3c(F)c(F)c(F)c(F)c3F)cc2C#Cc2c(F)c(F)c(F)c(F)c2F)cc1` yielded a photoluminescence quantum yield (in ClCCl) of 0.3. `Fc1nc(F)c(F)c(C#Cc2ccccc2C#Cc2c(F)c(F)nc(F)c2F)c1F` registered a photoluminescence quantum yield (in CC#N) of 0.63. For `CC1=CC(c2ccc3ccccc3c2)=[O+][B-]2(OC(=O)C(=O)O2)O1`, the photoluminescence quantum yield is 0.03 (in CC#N) and 0.06 (in ClC(Cl)(Cl)Cl).

Where the note is “in C1CCOC1”, `CCCCn1c2ccccc2c2c1c1c3ccccc3n(CCCC)c1c1c3ccccc3n(CCCC)c21` displayed a photoluminescence quantum yield of 0.19. `COC(=O)[C@@]12N=N[C@@](C(=O)OC)(C3C4CCC(C4)C31)[C@@H]1CC12` (stereo not given in full) gave a photoluminescence quantum yield (in CC#N) of 0.041. As to `COc1ccc(-n2nc(C#N)c(N3CCCC3)n2)cc1`, the photoluminescence quantum yield is, setting by setting: (in CC#N) 0.936; (in CO) 0.98. With `CC(C)(C)c1ccc2c(c1)c1cc(C(C)(C)C)ccc1n2-c1ccc(N(c2ccc(-c3ccc(-c4ccc(-c5ccc(-c6ccc(N(c7ccc(-n8c9ccc(C(C)(C)C)cc9c9cc(C(C)(C)C)ccc98)cc7)c7ccc(-n8c9ccc(C(C)(C)C)cc9c9cc(C(C)(C)C)ccc98)cc7)cc6)s5)c5nsnc45)s3)cc2)c2ccc(-n3c4ccc(C(C)(C)C)cc4c4cc(C(C)(C)C)ccc43)cc2)cc1`, the photoluminescence quantum yield (in ClCCl) was 0.08. In turn, `CC(C)(C)c1ccc2oc3nc4oc5ccc(N6c7ccccc7Oc7ccccc76)cc5c4cc3c2c1` came in with a photoluminescence quantum yield (in ClC(Cl)Cl) of 0.057. Consider `CC(=O)Nc1ccc(S(=O)(=O)O)c(/N=N/c2c(O)c3ccccc3n(C)c2=O)c1`, for which, for the setting “in CS(C)=O”, the photoluminescence quantum yield amounted to 0.03. As to `CCCn1c2cccc3oc4cccc5c4[c+](c32)c2c1cccc2n5CCC`, the photoluminescence quantum yield is 0.44 (in CC#N), 0.41 (in CO), 0.46 (in ClCCl) and 0.39 (in OCC(O)CO). The molecule `[NH3+]C1(c2ccc3cc(O)ccc3c2)C2CC3CC(C2)CC1C3` (stereo not given) showed a photoluminescence quantum yield (in CC#N) of 0.3. In the case of `N#Cc1cc(C#N)c(-n2c3ccccc3c3cc(-c4ccc5c(c4)c4ccccc4n5-c4cc(-n5c6ccccc6c6ccccc65)c(C#N)cc4C#N)ccc32)cc1-n1c2ccccc2c2ccccc21`, the photoluminescence quantum yield (in O=P(c1ccccc1)(c1ccccc1)c1ccccc1Oc1ccccc1P(=O)(c1ccccc1)c1ccccc1) is 0.87. In turn, `Cc1ccc2c(c1)n(C)c(-c1ccc(-c3ccc(-c4ccc(-c5n(C)c6cc(C)ccc6[n+]5C)cc4)cc3)cc1)[n+]2C` yielded a photoluminescence quantum yield (in O) of 0.68. Turning to `CCCCN(CCCC)c1ccc(C#Cc2cc(C#Cc3ccc(N(CCCC)CCCC)cc3)c(C#Cc3ccc(C#N)cc3)cc2C#Cc2ccc(C#N)cc2)cc1`, the photoluminescence quantum yield (in ClCCl) was found to be 0.35.
